Values of other authors, collected in US20170157075A1, “Edible Compositions and Methods for Promoting Alpha Brain Waves” (priority 2015, published 2017).

Legend:
[1] = estimated
[2] = 300 mg per day; controlled trial
[3] = daily 20 mg for every 10 pounds of body weight; controlled study
[4] = 300 mg per day
[5] = single 100 mg nighttime dose; placebo-controlled study
[6] = 600-900 mg daily; twelve weeks
[7] = not given; remark: listed apart in the source
[8] = not given; remark: listed apart in the source

Structure (SMILES) | share of an oral dose that ends up producing serotonin in the body [1] [%] | effect on symptoms of fibromyalgia [2] | share of subjects with migraine attacks reduced in frequency, severity and duration (400 mg per day, well-controlled trial) [%] | reduction of migraine headache attacks versus prescription medications (600 mg per day, adults, two double blind studies) | response of children with migraines and sleep problems [3] | effect in depression [4] | effect on duration and depth of sleep [5] | average weight loss [6] [lbs] | side effects or interactions reported during the studies ([7]; cited 5-HTP studies, 100-900 mg daily) | effect of high doses on brain dopamine ([7]; high doses, over time (Hinz et al. 2011, 2012)) | doses with no toxicity reports ([7]; humans, Examine.com summary) [mg/kg bodyweight] | therapeutic effect on cluster of mood symptoms versus placebo ([8]; 6 grams daily for 17 days, three consecutive cycles, 37 patients treated, 34 placebo) | withdrawals due to drug side effects ([8]; 6 grams daily, 71 women include placebo group)
N[C@@H](Cc1c[nH]c2ccc(O)cc12)C(=O)O [5-HTP, 5-hydroxytryptophan] | 70 | effective in reducing many symptoms of fibromyalgia | 90 | as effective as prescription medications | responded well | often effective | sufficient to improve the duration and depth of sleep | 11 | mild gastrointestinal disturbances in some people, mild nausea, heartburn, flatulence, feelings of fullness, and rumbling sensations | can lead over time to depletion of brain dopamine | ≤ 50 |  | 
N[C@@H](Cc1c[nH]c2ccccc12)C(=O)O [L-tryptophan] |  |  |  |  |  |  |  |  |  |  |  | significant (p=0.004) therapeutic effect | 1 of 71 women
